Patent US12319752B2, “Heparin-binding cationic peptide self-assembling peptide amphiphiles useful against drug-resistant bacteria” (priority 2016, dated 2025)
Residues, ends and D or L forms follow the SMILES beside them. *: point of attachment. Palmitoyl = CCCCCCCCCCCCCCCC(=O)*

Key:
MDR E. coli [1] = assay: Viable colony count assay (bactericidal effect, 4 h); assay type: cell-based, multidrug-resistant E. coli (MDR E. coli, ATCC #BAA-2471)
Experimental: The bactericidal effects of the peptides were examined using a viable colony count assay as well as the live/dead staining assay. For the viable colony count assay, bacteria were treated with peptides for 4 h and the resulting viable bacterial density of each sample was expressed by log10[CFU/mL]. For the Gram-positive bacteria tested, the decrease in bacterial density was dependent on the concentration of the ACA-PA (FIG. 8A). […] As for Gram-negative E. coli and MDR E. coli bacteria (FIG. 8B), the ACA nanorods, wherein the PA were added at a concentration above their CMC, had potent bactericidal effects. For example, the ACA nanorods at concentrations over 60 μM reduced the colony forming units of Gram-negative bacteria by about a five log unit reduction after 4 h compared with the untreated negative control sample.
In addition, ACA-PA were mixed with heparin at various weight ratios (1:1, 1:2, and 1:3 ACA-PA to heparin ratios) to block the Cardin motif groups on the PA. The ACA-PA concentration used to treat bacteria (MRSA and MDR E. coli) was a constant 80 μM and only varied in the concentration of heparin.
The viable count assay was performed to quantify the bactericidal activity of each peptide. Stock solutions of peptides were diluted in 3% TSB media to concentrations ranging from 20 μM to 100 μM immediately before experiments. Heparin-ACA-PA were also prepared by mixing the ACA-PA stock solution with heparin (sodium salt from porcine intestinal mucosa, Sigma, St. Louis, MO) to 1:1, 1:2 and 1:3 weight ratios in water, and a final concentration of ACA-PA in the heparin-ACA-PA at each heparin weight ratio was adjusted to 80 μM for each experiment. The bacteria (10^6 CFU/mL) were incubated with peptides at 37° C. for 4 h. After incubation, serial dilutions of samples were plated on TSB agar and then incubated at 37° C. overnight. The colonies from each spot were manually counted, and the CFU number for each sample was determined. Experiments were conducted in triplicate and results were expressed as the log 10 values of the CFU number in each sample. Data were expressed by stand error of the mean (±S.E.M.) and N=3, *p<0.05 compared with control samples and #p<0.05 compared with bacteria treated with 40 μM of ACA-PA.

MDR E. coli [2] = assay: Bacterial membrane disruption by TEM of ultrathin sections; assay type: cell-based, multidrug-resistant E. coli (MDR E. coli); conditions: 4 h
Experimental: TEM was used to reveal the damage in bacterial cell envelopes caused by ACA-PA treatment. Drug-resistant bacterial strains (MRSA and MDR E. coli) were exposed to ACA-PA at concentrations below (40 μM) and above (80 μM) the CMC, and ultrathin sections of the bacterial cultures were visualized by TEM.
The ACA-PA at a concentration lower than CMC seemed to only influenced the outer bacteria membrane, but were inadequate to disrupt the inner bacteria membranes.
Bacterial membrane disruption was observed from the ultrathin sectioned sample using TEM. […] After treatment with 80 μM ACA nanorods, bacterial cell membranes were severely damaged with complete cytoplasm leakage. […] On the damaged membranes, blisters appeared to originate from the pores. This explains the reason for the different antibacterial activity of ACA-PA on Gram-negative bacteria compared to the concentration-dependent toxicity on Gram-positive bacteria. The cell envelope of Gram-positive has a cytoplasmic membrane surrounded by a thick peptidoglycan layer with lipoteichoic acid. The antibacterial ACA-PA could penetrate the Gram-positive bacterial membrane by charge and hydrophobicity, although the PA were in a dispersed, non-assembled form. However, such dispersed PA were not able to penetrate the outer membrane of Gram-negative bacteria. […]

CCCCCCCCCCCCCCCC(=O)N[C@H](C(=O)N[C@H](C(=O)N[C@H](C(=O)N[C@H](C(=O)N[C@@H](CCCCN)C(=O)N[C@@H](CCCCN)C(=O)N[C@@H](CCCCN)C(=O)N[C@@H](CCCCN)C(=O)NCC(=O)N[C@@H](C)C(=O)N[C@@H](CCCCN)C(=O)N[C@@H](CCCCN)C(=O)N[C@@H](C)C(=O)N[C@@H](CCCNC(=N)N)C(=O)N[C@@H](C)C(=O)N[C@@H](C)C(=O)N[C@@H](CCCCN)C(=O)N[C@@H](CCCCN)C(=O)N[C@@H](C)C(=O)N[C@@H](CCCNC(=N)N)C(=O)N[C@@H](C)C(=O)O)C(C)C)C(C)C)C(C)C)C(C)C [ACA-PA, C16-V4K4G(AKKARA)2 (SEQ ID NO: 7)] (Palmitoyl-VVVVKKKKGAKKARAAKKARA-OH; N-terminus and C-terminus assumed)
decrease in bacteria density (MDR E. coli [1]; MDR E. coli (Gram-negative), 60 to 100 μM): 10,000 fold | number of viable bacteria colonies after mixing with heparin (MDR E. coli [1]; MDR E. coli, 80 μM ACA-PA, 1:1, 1:2, 1:3 ACA-PA to heparin weight ratios): positively proportional to the amount of heparin added | toxicity towards bacteria after mixing with heparin (MDR E. coli [1]; MDR E. coli, 80 μM ACA-PA, 1:3 ACA-PA to heparin weight ratio, 4 h): no toxicity towards bacteria | reduction in bacteria density (MDR E. coli [1]; MDR E. coli, concentrations lower than CMC, 4 h): no significant reduction in Gram-negative bacteria density | reduction of colony forming units (MDR E. coli [1]; MDR E. coli, over 60 μM, 4 h, vs untreated control): five | bacterial membrane disruption (TEM) (MDR E. coli [2]; 40 μM): blisters only on the outer cell walls | bacterial membrane disruption (TEM) (MDR E. coli [2]; 80 μM): disrupted bacteria envelopes with loosened and disconnected membranous structures
